9 compounds from patent US10844062B2, “Pyridine derivative inhibiting RAF kinase and vascular endothelial growth factor receptor, method for preparing same, pharmaceutical composition containing same, and use thereof” (SAMJIN PHARMACEUTICAL CO., LTD., priority 2016, dated 2020) can be followed below.

Where two headings read alike, the source gives them in different places.

Test [1] addresses C-Raf (Homo sapiens (Human), UniProt P04049). The test is described as follows: Raf kinase inhibitory activity (Raf/MEK1/MAPK2 cascade, MBP phosphorylation, 32P). Format: biochemical. How it is done: (§1) In order to examine the inhibitory activities of the compounds of the present invention against Raf kinases (B-Raf, C-Raf, B-Raf^V600E), the following experiment was performed.
(§2) (1) Consecutive Signal Transduction Reaction
(§3) To a centrifugation tube, 20 μl of a dilution solvent (20 mM MOPS, pH 7.2, 25 mM (3-glycerol phosphate, 5 mM EGTA, 1 mM sodium orthovanadate, 1 mM dithiothreitol) and 20 μl of a Mg/ATP mixture (500 μM ATP and 75 mM magnesium chloride) were added. Then, each of the derivative compounds of formula 1 was added. As a control, 1 ng of activated raf, 0.4 ng of inactivated MEK1 and 1 μg of inactivated MAPK2 were added without adding Example compounds. The solutions in the tube were concentrated at the bottom of the tube by centrifugation, and then allowed to react at 30° C. for 30 minutes, and 4 μl of the mixture solution was taken and used in the next experimental step.
(§4) (2) Phosphorylation of Substrate Protein MBP by MAPK2
(§5) To 4 μl of the mixture solution taken in (1), 10 μl of a dilution solvent, 20 μg of MBP as a substrate, and 10 μl of diluted [γ-32P]ATP (1 μCi/μL) were added. The solutions in the tube were concentrated at the bottom of the tube by centrifugation, and then allowed to react at 30° C. for 30 minutes. 25 μl of the reaction solution was carefully placed on the center of 2 cm×2 cm P81 filter paper for 30 seconds. Next, the filter paper was washed three times with 0.75% phosphoric acid solution for 10 minutes each time and washed once with acetone for 5 minutes. Next, the filter paper was transferred into a scintillation vial, and 5 ml of a scintillation cocktail was added thereto. Raf activity inhibition rate (IC50) was measured by reading the radioactivity with a scintillation counter in comparison with the control.

The target in test [2] is B-Raf (Homo sapiens (Human), UniProt P15056). Described as above. Format: biochemical. How it is done: as §1, §2, §3, §4, §5
Test [3] addresses B-Raf V600E (Homo sapiens (Human), UniProt P15056, V600E). The description is as above. In kind it is biochemical. How it is done:
as §1, §2, §3, §4, §5

Test [4] deals with A-375P BRAF V600E (melanoma). The test is described as follows: MTT assay. Format: cell-based. To be noted: A375P, 72 h; Table 5; 3 days incubation. In outline: (§6)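 Cells were seeded at line-dependent density and stabilised overnight at 37 °C, then exposed to compounds for 3 days at 37 °C. MTT was then added for 2 h and the formazan dissolved in DMSO.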
For test [5], the system named is HCT-116 KRAS G13D (colon). As to the kind of experiment: MTT assay. In kind it is cell-based. To be noted: Homo sapiens, HCT-116, 72 h; Table 5; 3 days incubation; read-out: MTT assay IC50 KRAS mutant (Colon) HCT-116 KRAS G13D. The procedure, abridged:
as §6

For test [6], the system named is LS513 KRAS G12V (colon). The test is described as follows: MTT assay. In kind it is cell-based. The following applies: Homo sapiens, LS-513, 72 h, 3 days incubation, read-out: MTT assay IC50 KRAS mutant (Colon) LS513 KRAS G12V. The procedure, abridged:
as §6
(In general: Tetrazolium dyes change colour on reduction, which living cells bring about.)

Test [7] has as its system SW620 KRAS G12V (colon). As to the kind of experiment: MTT assay. Format: cell-based. The following applies: Homo sapiens, SW-620, 72 h; Table 5; 3 days incubation; read-out: MTT assay IC50 KRAS mutant (Colon) SW620 KRAS G12V. The procedure, abridged: as §6
Test [8] has as its system WiDR BRAF V600E (colon). The test is described as follows: MTT assay. In kind it is cell-based. The following applies: Homo sapiens, 72 h, Table 5, 3 days incubation, read-out: MTT assay IC50 BRAF mutant (Colon) WiDR BRAF V600E. In outline:
as §6

The test system of test [9] is HUVEC (VEGF). As to the kind of experiment: MTT assay. In kind it is cell-based. To be noted: Homo sapiens, 72 h, Table 5, 3 days incubation. The procedure, abridged:
as §6

The subject of test [10] is SK-MEL2 NRAS Q61R (melanoma). The test is described as follows: MTT assay. In kind it is cell-based. The following applies: Homo sapiens, SK-MEL-2, 72 h; Table 5; 3 days incubation. The procedure, abridged:
as §6

For test [11], the system named is LS513 human colorectal cancer cell line xenograft. As to the kind of experiment: Antitumor effect on human colorectal cancer LS513 cell line xenograft. Format: in vivo, Balb/c nu/nu nude mice. The following applies: oral, twice a day, 60 mg/kg or 30 mg/kg (dose not specified per compound), 14 days. From the text:
In this experiment, 5 to 6-week-old female Balb/c nu/nu nude mice (weighed 18 to 20 g) were used. The mice were provided from Nara Biotech Co., Ltd. During the experiment, all the animals were housed on a mouse constant temperature/constant humidity shelf (Individually Ventilated Cages System, LAB & BIO).
Each cage (37.2 cm length×19.2 cm width×13.1 cm height) was sterilized with a sterilizer, and eight mice were received in each cage. The mice were maintained in a hygienic environment controlled to a temperature of 20 to 24° C. and a humidity of 40 to 70% with a 12-hr light/12-hr dark cycle. The mice were allowed to access sterilized feed and drinking water ad libitum. The care and treatment of these animals were carried out according to the Laboratory Animal Care Guidelines of Samjin Pharmaceutical Co., Ltd.
The mice were acclimated to the housing facility for 1 week, and then 0.1 mL of a cell suspension containing 1×10^7 cells was injected subcutaneously into the right flank of each mouse. After cell transplantation, the volume of the formed tumor was measured, and mice with formed tumors having a volume of 150 mm^3 or more were randomly divided into groups (each consisting of 7 to 8 animals) for treatment with the test compounds and a control. […] Administration of the drugs was continued for 14 days. […] At 3-day intervals from the starting day of the administration, the long axis and short axis of the tumor were measured with digital vernier calipers, and the tumor volume was calculated using the following equation and recorded: Tumor volume (TV)=Long axis×short axis^2/2.
Tumor growth inhibition for absolute tumor volume was calculated using the following equation. In the following equation, V0 is the tumor volume on the first day of drug administration (day 0), and Vt is the tumor volume after last drug administration.

Test [12] has the same test system. The test is described as above. Format: in vivo, Balb/c nu/nu nude mice. To be noted: oral.

Chain of C-Raf (P04049 whole entry): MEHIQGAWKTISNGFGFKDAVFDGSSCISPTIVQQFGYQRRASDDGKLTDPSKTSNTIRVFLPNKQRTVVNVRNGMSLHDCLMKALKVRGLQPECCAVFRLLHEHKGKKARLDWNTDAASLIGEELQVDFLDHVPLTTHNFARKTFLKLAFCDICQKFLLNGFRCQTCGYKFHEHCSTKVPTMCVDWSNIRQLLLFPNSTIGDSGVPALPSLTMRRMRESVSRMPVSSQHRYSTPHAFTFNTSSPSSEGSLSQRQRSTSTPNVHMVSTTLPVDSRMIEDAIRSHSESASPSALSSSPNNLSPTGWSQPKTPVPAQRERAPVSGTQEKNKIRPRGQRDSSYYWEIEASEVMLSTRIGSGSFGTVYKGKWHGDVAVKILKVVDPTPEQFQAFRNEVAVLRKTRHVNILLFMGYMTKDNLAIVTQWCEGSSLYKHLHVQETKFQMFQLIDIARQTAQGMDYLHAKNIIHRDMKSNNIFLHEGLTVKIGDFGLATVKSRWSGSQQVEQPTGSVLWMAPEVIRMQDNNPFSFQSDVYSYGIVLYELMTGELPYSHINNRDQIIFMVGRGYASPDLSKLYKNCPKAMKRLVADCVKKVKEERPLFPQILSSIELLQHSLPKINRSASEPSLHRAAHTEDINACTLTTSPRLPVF
Chain of B-Raf (P15056 whole entry): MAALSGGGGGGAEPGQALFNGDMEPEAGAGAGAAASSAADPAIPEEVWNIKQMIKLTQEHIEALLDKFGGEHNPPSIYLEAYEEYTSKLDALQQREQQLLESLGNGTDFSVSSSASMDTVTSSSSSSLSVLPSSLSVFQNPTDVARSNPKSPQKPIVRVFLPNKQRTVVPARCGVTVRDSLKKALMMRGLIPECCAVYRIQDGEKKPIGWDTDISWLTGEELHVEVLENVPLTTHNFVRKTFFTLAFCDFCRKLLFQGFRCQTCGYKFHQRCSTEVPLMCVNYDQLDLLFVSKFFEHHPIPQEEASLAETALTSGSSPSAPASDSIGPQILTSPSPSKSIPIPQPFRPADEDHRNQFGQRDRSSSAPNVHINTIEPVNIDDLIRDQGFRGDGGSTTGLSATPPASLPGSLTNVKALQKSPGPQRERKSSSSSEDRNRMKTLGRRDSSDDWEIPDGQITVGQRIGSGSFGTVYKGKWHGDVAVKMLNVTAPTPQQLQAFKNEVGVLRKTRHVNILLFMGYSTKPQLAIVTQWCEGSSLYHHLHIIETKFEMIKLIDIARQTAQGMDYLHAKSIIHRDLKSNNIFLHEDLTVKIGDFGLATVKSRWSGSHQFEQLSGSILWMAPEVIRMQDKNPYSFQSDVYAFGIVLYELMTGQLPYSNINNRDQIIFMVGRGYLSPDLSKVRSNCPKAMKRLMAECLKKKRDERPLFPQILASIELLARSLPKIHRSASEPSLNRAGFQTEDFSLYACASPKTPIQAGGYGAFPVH
Chain of B-Raf V600E (P15056 whole entry V600E): as the sequence (P15056 whole entry) above, with V600E counted along it

For `O=C(Nc1ccc(F)c(Nc2ncccc2-c2ncnc3[nH]cnc23)c1F)c1cccc(C(F)(F)F)c1` [Example 1, N-(3-(3-(9H-purin-6-yl)pyridin-2-ylamino)-2,4-difluorophenyl)-3-(trifluoromethyl)benzamide], the IC50 in test [1] was 23 nM; in [2], 34 nM; in [3], 16 nM; in test [4], 95 nM; in test [5], 101 nM; in [6] (Table 4), 1180 nM. In addition, the IC50 in test [6] (Table 5) came out at 278 nM; in test [7], 849 nM; in [8], 115 nM; in [9], 22 nM.

As for `CC(C)(C#N)c1cccc(C(=O)Nc2ccc(F)c(Nc3ncccc3-c3ncnc4[nH]cnc34)c2F)c1` [Example 9, N-(3-(3-(9H-purin-6-yl)pyridin-2-ylamino)-2,4-difluorophenyl)-3-(2-cyanopropan-2-yl)benzamide], the IC50 in test [1] worked out at 0.6 nM; in test [2] it was 2 nM; in test [3], 0.2 nM; in test [10] it was 106 nM; in test [4], 40 nM; in [5], 75 nM. The IC50 stood at 656 nM in test [6] (Table 4); 138 nM in [6] (Table 5); 643 nM in [7]; 58 nM in test [8]; 44 nM in [9].

With `CC(C)(C#N)c1cccc(C(=O)Nc2cccc(Nc3ncccc3-c3ncnc4[nH]cnc34)c2)c1` [Example 23, N-(3-(3-(9H-purin-6-yl)pyridin-2-ylamino)phenyl)-3-(2-cyanopropan-2-yl)benzamide], the IC50 stood at 8 nM in test [1]; 17 nM in [2]; 7 nM in [3]; 58 nM in [10]; 12 nM in [4]; 50 nM in test [5]. Besides, the half-inhibitory concentration (IC50) in [6] (Table 4) was 687 nM; in test [6] (Table 5), 95 nM; in test [7], 321 nM; in [8], 62 nM; in [9], 28 nM.

Take `CC(C)(C#N)c1cc(F)cc(C(=O)Nc2cc(Nc3ncccc3-c3ncnc4[nH]cnc34)ccc2F)c1` [Example 33, N-(5-(3-(9H-Purin-6-Yl)Pyridin-2-Ylamino)-2-Fluorophenyl)-3-(2-Cyanopropan-2-Yl)-5-Fluorobenzamide]: the “antitumor effect (tumor growth inhibition) compared to the vehicle control” value in [11] stood at 96.0%. Further, the IC50 in test [1] came to 24 nM; in [2] it was 94 nM; in [3] it was 33 nM; in test [6] (Table 4), 199 nM.

`COc1ccc(C(=O)Nc2ccc(F)c(Nc3ncccc3-c3ncnc4[nH]cnc34)c2F)cc1` [Example 53, N-(3-(3-(9H-Purin-6-Yl)Pyridin-2-Ylamino)-2,4-Difluorophenyl)-4-Methoxybenzamide]: the IC50 in test [1] came out at 7 nM; in [2] it was 14 nM; in test [3], 6 nM; in [10] it was 35 nM; in test [4], 4 nM; in test [5] it was 17 nM. Moreover, the IC50 in test [6] (Table 4) was over 10000 nM; in [6] (Table 5), 29 nM; in test [7] it was 180 nM; in [8], 391 nM; in test [9] it was 5.8 nM.

Consider `O=C(Nc1cc(Nc2ncccc2-c2ncnc3[nH]cnc23)ccc1F)c1cc(C(F)(F)F)cc(C(F)(F)F)c1` [Example 65, N-2-Fluoro-5-[3-(9H-Purin-6-Yl)Pyridin-2-Ylamino)Phenyl-3,5-Bis(Trifluoromethyl)Benzamide], for which the IC50 in test [1] came out at 257 nM; in [2], 331 nM; in test [3], 187 nM; in [5], 208 nM; in [6] (Table 4), 100 nM; in [6] (Table 5) it was 322 nM. The IC50 was 700 nM in [7], 247 nM in test [8] and 850 nM in test [9]. Moreover, the “antitumor effect (tumor growth inhibition)” value in test [12] (50 mg/kg, once a day, 13 days) amounted to 95.42%.

For the compound `O=C(Nc1cc(Nc2ncccc2-c2ncnc3[nH]cnc23)ccc1F)c1cc(Cl)cc(C(F)(F)F)c1` [Example 135, N-5-[(3-(9H-purin-6-yl)pyridin-2-yl)amino]-2-fluorophenyl-3-chloro-5-(trifluoromethyl)benzamide], the IC50 in test [1] came to 34 nM; in [2] it was 161 nM; in test [3] it was 86 nM; in test [5], 74 nM; in test [6] (Table 4), 80 nM; in test [6] (Table 5), 88 nM. For the same compound, the IC50 stood at 317 nM in test [7], 68 nM in test [8] and 733 nM in [9]. Further, the “antitumor effect (tumor growth inhibition)” value in [12] (12.5 mg/kg, 21 days) was 52.36%; in test [12] (25 mg/kg, 21 days), 74.73%; in [12] (50 mg/kg, 21 days) it was 86.85%; in test [12] (50 mg/kg, once a day, 13 days), 92.66%.

On to `Cc1cc(C(=O)Nc2cc(Nc3ncccc3-c3ncnc4[nH]cnc34)ccc2F)cc(C(F)(F)F)c1` [Example 139, N-5-[(3-(9H-purin-6-yl)pyridin-2-yl)amino]-2-fluorophenyl-3-methyl-5-(trifluoromethyl)benzamide], for which the results for the IC50 in [6] (Table 4), in test [6] (Table 5) and in test [8] were 99 nM, 96 nM and 116 nM, respectively. Moreover, in test [12] (50 mg/kg, once a day, 13 days), the “antitumor effect (tumor growth inhibition)” value was 91.04%.

Regarding `CC(C)(C#N)c1cc(C(=O)Nc2cc(Nc3ncccc3-c3ncnc4[nH]cnc34)ccc2F)cc(C(F)(F)F)c1` [Example 154, N-5-[(3-(9H-purin-6-yl)pyridin-2-yl)amino]-2-fluorophenyl-3-(2-cyanopropan-2-yl)-5-(trifluoromethyl)benzamide], the IC50 in [6] (Table 4) stood at 326 nM; in [6] (Table 5), 326 nM; in [8], 97 nM. Further, the “antitumor effect (tumor growth inhibition)” value in [12] (50 mg/kg, once a day, 13 days) stood at 83.19%.

Usually IC50 stands for the concentration that inhibits the measured activity by half.
